Measured values reported in ChEMBL document CHEMBL5614394, “Novel pleuromutilin derivatives conjugated with phenyl-sulfide and boron-containing moieties as potent antibacterial agents against antibiotic-resistant bacteria” (Eur J Med Chem, 2024).
Values after ≈ are worked out from the molar mass of the structure shown.

Experiments:
[1] = test system: Staphylococcus aureus; assay: Antibacterial activity against Staphylococcus aureus ATCC 29213 assessed as inhibition of visible growth of bacteria incubated for 24 hrs by CLSI protocol based broth-dilution method; format: functional
[2] = test system: Staphylococcus epidermidis; assay: Antibacterial activity against Staphylococcus epidermidis ATCC 12228 assessed as inhibition of visible growth of bacteria incubated for 24 hrs by CLSI protocol based broth-dilution method; format: functional

22-(3-(((5-Borono-3-pyridinyl)carbonyl)amino)phenylsulfanyl)-22-deoxypleuromutilin
MIC [1]: 0.25 mg/L | MIC [2]: 0.25 mg/L

C=C[C@]1(C)C[C@@H](OC(=O)CSc2cccc(NC(=O)c3ccc(B(O)O)c(F)c3F)c2)[C@]2(C)[C@H](C)CC[C@]3(CCC(=O)[C@H]32)[C@@H](C)[C@@H]1O
MIC [1]: 0.031 mg/L (≈ 0.0463 µM) | MIC [2]: 0.031 mg/L (≈ 0.0463 µM)

C=C[C@]1(C)C[C@@H](OC(=O)CSc2cccc(NC(=O)c3ccc(B(O)O)cc3[N+](=O)[O-])c2)[C@]2(C)[C@H](C)CC[C@]3(CCC(=O)[C@H]32)[C@@H](C)[C@@H]1O
MIC [1]: 0.25 mg/L (≈ 0.368 µM) | MIC [2]: 0.25 mg/L (≈ 0.368 µM)

C=C[C@]1(C)C[C@@H](OC(=O)CSc2cccc(NC(=O)c3ccc(OC)c(B(O)O)c3)c2)[C@]2(C)[C@H](C)CC[C@]3(CCC(=O)[C@H]32)[C@@H](C)[C@@H]1O
MIC [1]: 0.031 mg/L (≈ 0.0467 µM) | MIC [2]: 0.031 mg/L (≈ 0.0467 µM)

C=C[C@]1(C)C[C@@H](OC(=O)CSc2cccc(NC(=O)c3ccc(C)c(B(O)O)c3)c2)[C@]2(C)[C@H](C)CC[C@]3(CCC(=O)[C@H]32)[C@@H](C)[C@@H]1O
MIC [1]: 0.031 mg/L (≈ 0.0479 µM) | MIC [2]: 0.031 mg/L (≈ 0.0479 µM)

C=C[C@]1(C)C[C@@H](OC(=O)CSc2ccccc2NC(=O)c2ccc3c(c2)B(O)OC3)[C@]2(C)[C@H](C)CC[C@]3(CCC(=O)[C@H]32)[C@@H](C)[C@@H]1O
MIC [1]: 0.063 mg/L (≈ 0.0976 µM) | MIC [2]: 1 mg/L (≈ 1.55 µM)

C=C[C@]1(C)C[C@@H](OC(=O)CSc2cccc(NC(=O)c3ccc(B4OC(C)(C)C(C)(C)O4)cc3)c2)[C@]2(C)[C@H](C)CC[C@]3(CCC(=O)[C@H]32)[C@@H](C)[C@@H]1O
MIC [1]: 0.063 mg/L (≈ 0.088 µM) | MIC [2]: 0.063 mg/L (≈ 0.088 µM)

C=C[C@]1(C)C[C@@H](OC(=O)CSc2cccc(NC(=O)c3ccc(B(O)O)cc3Cl)c2)[C@]2(C)[C@H](C)CC[C@]3(CCC(=O)[C@H]32)[C@@H](C)[C@@H]1O
MIC [1]: 0.063 mg/L (≈ 0.0943 µM) | MIC [2]: 1 mg/L (≈ 1.5 µM)

C=C[C@]1(C)C[C@@H](OC(=O)CS[C@@H]2CC[C@@H](NC(=O)c3ccc4c(c3)B(O)OC4)C[C@H]2O)[C@]2(C)[C@H](C)CC[C@]3(CCC(=O)[C@H]32)[C@@H](C)[C@@H]1O
MIC [1]: 0.063 mg/L (≈ 0.0944 µM) | MIC [2]: 4 mg/L (≈ 5.99 µM)

C=C[C@]1(C)C[C@@H](OC(=O)CSc2ccc(NC(=O)c3ccc(B(O)O)cc3F)cc2)[C@]2(C)[C@H](C)CC[C@]3(CCC(=O)[C@H]32)[C@@H](C)[C@@H]1O
MIC [1]: 0.063 mg/L (≈ 0.0967 µM) | MIC [2]: 4 mg/L (≈ 6.14 µM)

C=C[C@]1(C)C[C@@H](OC(=O)CSc2cccc(NC(=O)c3ccc(B(O)O)cc3F)c2)[C@]2(C)[C@H](C)CC[C@]3(CCC(=O)[C@H]32)[C@@H](C)[C@@H]1O
MIC [1]: 0.063 mg/L (≈ 0.0967 µM) | MIC [2]: 0.063 mg/L (≈ 0.0967 µM)

C=C[C@]1(C)C[C@@H](OC(=O)CSc2cccc(NC(=O)c3cc(F)c(B(O)O)c(F)c3)c2)[C@]2(C)[C@H](C)CC[C@]3(CCC(=O)[C@H]32)[C@@H](C)[C@@H]1O
MIC [1]: 0.031 mg/L (≈ 0.0463 µM) | MIC [2]: 0.031 mg/L (≈ 0.0463 µM)

C=C[C@]1(C)C[C@@H](OC(=O)CSc2cccc(NC(=O)c3cc(OC)cc(B(O)O)c3)c2)[C@]2(C)[C@H](C)CC[C@]3(CCC(=O)[C@H]32)[C@@H](C)[C@@H]1O
MIC [1]: 0.031 mg/L (≈ 0.0467 µM) | MIC [2]: 0.031 mg/L (≈ 0.0467 µM)

C=C[C@]1(C)C[C@@H](OC(=O)CSc2cccc(NC(=O)c3cc(F)cc(B(O)O)c3)c2)[C@]2(C)[C@H](C)CC[C@]3(CCC(=O)[C@H]32)[C@@H](C)[C@@H]1O
MIC [1]: 0.031 mg/L (≈ 0.0476 µM) | MIC [2]: 0.031 mg/L (≈ 0.0476 µM)

C=C[C@]1(C)C[C@@H](OC(=O)CSc2cccc(NC(=O)c3cc(C)cc(B(O)O)c3)c2)[C@]2(C)[C@H](C)CC[C@]3(CCC(=O)[C@H]32)[C@@H](C)[C@@H]1O
MIC [1]: 0.031 mg/L (≈ 0.0479 µM) | MIC [2]: 0.031 mg/L (≈ 0.0479 µM)

C=C[C@]1(C)C[C@@H](OC(=O)CSc2ccc(NC(=O)c3ccc(B(O)O)c(F)c3)cc2)[C@]2(C)[C@H](C)CC[C@]3(CCC(=O)[C@H]32)[C@@H](C)[C@@H]1O
MIC [1]: 0.063 mg/L (≈ 0.0967 µM) | MIC [2]: 16 mg/L (≈ 24.6 µM)

C=C[C@]1(C)C[C@@H](OC(=O)CSc2cccc(NC(=O)Cc3cccc(B(O)O)c3)c2)[C@]2(C)[C@H](C)CC[C@]3(CCC(=O)[C@H]32)[C@@H](C)[C@@H]1O
MIC [1]: 0.063 mg/L (≈ 0.0973 µM) | MIC [2]: 0.063 mg/L (≈ 0.0973 µM)

C=C[C@]1(C)C[C@@H](OC(=O)CSc2cccc(NC(=O)c3cc(N)cc(B(O)O)c3)c2)[C@]2(C)[C@H](C)CC[C@]3(CCC(=O)[C@H]32)[C@@H](C)[C@@H]1O
MIC [1]: 0.063 mg/L (≈ 0.0971 µM) | MIC [2]: 0.063 mg/L (≈ 0.0971 µM)

C=C[C@]1(C)C[C@@H](OC(=O)CSc2cccc(NC(=O)c3ccc(B(O)O)c(OC)c3)c2)[C@]2(C)[C@H](C)CC[C@]3(CCC(=O)[C@H]32)[C@@H](C)[C@@H]1O
MIC [1]: 0.031 mg/L (≈ 0.0467 µM) | MIC [2]: 0.031 mg/L (≈ 0.0467 µM)

C=C[C@]1(C)C[C@@H](OC(=O)CSc2cccc(NC(=O)c3cc(B(O)O)cc(C(F)(F)F)c3)c2)[C@]2(C)[C@H](C)CC[C@]3(CCC(=O)[C@H]32)[C@@H](C)[C@@H]1O
MIC [1]: 0.063 mg/L (≈ 0.0898 µM) | MIC [2]: 0.5 mg/L (≈ 0.713 µM)

C=C[C@]1(C)C[C@@H](OC(=O)CSc2ccc(NC(=O)c3cccc(B(O)O)c3)cc2)[C@]2(C)[C@H](C)CC[C@]3(CCC(=O)[C@H]32)[C@@H](C)[C@@H]1O
MIC [1]: 0.031 mg/L (≈ 0.0489 µM) | MIC [2]: 0.031 mg/L (≈ 0.0489 µM)

C=C[C@]1(C)C[C@@H](OC(=O)CSc2cccc(NC(=O)c3ccc(B(O)O)o3)c2)[C@]2(C)[C@H](C)CC[C@]3(CCC(=O)[C@H]32)[C@@H](C)[C@@H]1O
MIC [1]: 0.5 mg/L (≈ 0.802 µM) | MIC [2]: 0.063 mg/L (≈ 0.101 µM)

C=C[C@]1(C)C[C@@H](OC(=O)CSc2cccc(NC(=O)c3cc(B(O)O)ccc3F)c2)[C@]2(C)[C@H](C)CC[C@]3(CCC(=O)[C@H]32)[C@@H](C)[C@@H]1O
MIC [1]: 0.063 mg/L (≈ 0.0967 µM) | MIC [2]: 0.063 mg/L (≈ 0.0967 µM)

C=C[C@]1(C)C[C@@H](OC(=O)CSc2cccc(NCc3ccccc3B(O)O)c2)[C@]2(C)[C@H](C)CC[C@]3(CCC(=O)[C@H]32)[C@@H](C)[C@@H]1O
MIC [1]: 0.031 mg/L (≈ 0.05 µM) | MIC [2]: 0.031 mg/L (≈ 0.05 µM)

C=C[C@]1(C)C[C@@H](OC(=O)CSc2cccc(NC(=O)c3cc(B(O)O)ccc3OC)c2)[C@]2(C)[C@H](C)CC[C@]3(CCC(=O)[C@H]32)[C@@H](C)[C@@H]1O
MIC [1]: 0.031 mg/L (≈ 0.0467 µM) | MIC [2]: 0.031 mg/L (≈ 0.0467 µM)

C=C[C@]1(C)C[C@@H](OC(=O)CSc2ccc(NC(=O)c3ccc(F)c(B(O)O)c3)cc2)[C@]2(C)[C@H](C)CC[C@]3(CCC(=O)[C@H]32)[C@@H](C)[C@@H]1O
MIC [1]: 0.063 mg/L (≈ 0.0967 µM) | MIC [2]: 16 mg/L (≈ 24.6 µM)

C=C[C@]1(C)C[C@@H](OC(=O)CSc2cccc(NC(=O)c3ccc(F)c(B(O)O)c3)c2)[C@]2(C)[C@H](C)CC[C@]3(CCC(=O)[C@H]32)[C@@H](C)[C@@H]1O
MIC [1]: 0.063 mg/L (≈ 0.0967 µM) | MIC [2]: 16 mg/L (≈ 24.6 µM)

C=C[C@]1(C)C[C@@H](OC(=O)CSc2cccc(NC(=O)c3ccc(B(O)O)s3)c2)[C@]2(C)[C@H](C)CC[C@]3(CCC(=O)[C@H]32)[C@@H](C)[C@@H]1O
MIC [1]: 0.063 mg/L (≈ 0.0985 µM) | MIC [2]: 0.063 mg/L (≈ 0.0985 µM)

C=C[C@]1(C)C[C@@H](OC(=O)CSc2cccc(NCc3cccc(B(O)O)c3)c2)[C@]2(C)[C@H](C)CC[C@]3(CCC(=O)[C@H]32)[C@@H](C)[C@@H]1O
MIC [1]: 0.063 mg/L (≈ 0.102 µM) | MIC [2]: 0.125 mg/L (≈ 0.202 µM)

C=C[C@]1(C)C[C@@H](OC(=O)CSc2cccc(NC(=O)c3ccc(B(O)O)c(F)c3)c2)[C@]2(C)[C@H](C)CC[C@]3(CCC(=O)[C@H]32)[C@@H](C)[C@@H]1O
MIC [1]: 0.063 mg/L (≈ 0.0967 µM) | MIC [2]: 16 mg/L (≈ 24.6 µM)

C=C[C@]1(C)C[C@@H](OC(=O)CSc2cccc(NC(=O)c3ccc(B(O)O)c([N+](=O)[O-])c3)c2)[C@]2(C)[C@H](C)CC[C@]3(CCC(=O)[C@H]32)[C@@H](C)[C@@H]1O
MIC [1]: 0.063 mg/L (≈ 0.0928 µM) | MIC [2]: 0.063 mg/L (≈ 0.0928 µM)

C=C[C@]1(C)C[C@@H](OC(=O)CSc2cccc(NC(=O)c3ccc(B(O)O)c(Cl)c3)c2)[C@]2(C)[C@H](C)CC[C@]3(CCC(=O)[C@H]32)[C@@H](C)[C@@H]1O
MIC [1]: 0.063 mg/L (≈ 0.0943 µM) | MIC [2]: 1 mg/L (≈ 1.5 µM)

C=C[C@]1(C)C[C@@H](OC(=O)CSc2ccc(NC(=O)c3cc(B(O)O)ccc3F)cc2)[C@]2(C)[C@H](C)CC[C@]3(CCC(=O)[C@H]32)[C@@H](C)[C@@H]1O
MIC [1]: 0.063 mg/L (≈ 0.0967 µM) | MIC [2]: 1 mg/L (≈ 1.53 µM)

C=C[C@]1(C)C[C@@H](OC(=O)CSc2cccc(NC(=O)Cc3ccc(B(O)O)cc3)c2)[C@]2(C)[C@H](C)CC[C@]3(CCC(=O)[C@H]32)[C@@H](C)[C@@H]1O
MIC [1]: 0.063 mg/L (≈ 0.0973 µM) | MIC [2]: 0.063 mg/L (≈ 0.0973 µM)

C=C[C@]1(C)C[C@@H](OC(=O)CSc2cccc(NC(=O)c3cccc(B4OC(C)(C)C(C)(C)O4)c3)c2)[C@]2(C)[C@H](C)CC[C@]3(CCC(=O)[C@H]32)[C@@H](C)[C@@H]1O
MIC [1]: 0.063 mg/L (≈ 0.088 µM) | MIC [2]: 0.063 mg/L (≈ 0.088 µM)

C=C[C@]1(C)C[C@@H](OC(=O)CSc2cccc(NCc3ccc(B(O)O)cc3)c2)[C@]2(C)[C@H](C)CC[C@]3(CCC(=O)[C@H]32)[C@@H](C)[C@@H]1O
MIC [1]: 0.063 mg/L (≈ 0.102 µM) | MIC [2]: 0.063 mg/L (≈ 0.102 µM)

C=C[C@]1(C)C[C@@H](OC(=O)CSc2cccc(NC(=O)c3cccc(B(O)O)c3)c2)[C@]2(C)[C@H](C)CC[C@]3(CCC(=O)[C@H]32)[C@@H](C)[C@@H]1O
MIC [1]: 0.063 mg/L (≈ 0.0994 µM) | MIC [2]: 0.063 mg/L (≈ 0.0994 µM)

C=C[C@]1(C)C[C@@H](OC(=O)CSc2ccc(NC(=O)c3ccc4c(c3)B(O)OC4)cc2)[C@]2(C)[C@H](C)CC[C@]3(CCC(=O)[C@H]32)[C@@H](C)[C@@H]1O
MIC [1]: 0.016 mg/L (≈ 0.0248 µM) | MIC [2]: 0.25 mg/L (≈ 0.387 µM)

C=C[C@]1(C)C[C@@H](OC(=O)CSc2ccc(NC(=O)c3ccc(B(O)O)cc3)cc2)[C@]2(C)[C@H](C)CC[C@]3(CCC(=O)[C@H]32)[C@@H](C)[C@@H]1O
MIC [1]: 0.063 mg/L (≈ 0.0994 µM) | MIC [2]: 0.5 mg/L (≈ 0.789 µM)
